This note sets out measurements from ChEMBL document CHEMBL3091276, “Design, synthesis and evaluation of 6-(4-((substituted-1H-1,2,3-triazol-4-yl)methyl)piperazin-1-yl)phenanthridine analogues as antimycobacterial agents” (Bioorg Med Chem Lett, 2013).

In brackets after ≈: the same amount, converted by molar mass.

The subject of data set [1] is Mycobacterium tuberculosis. Briefly: Antimycobacterial activity in Mycobacterium tuberculosis H37Rv after 5 days by Alamar Blue assay. Format: functional. As to conditions: 120 h. (The colour change of resazurin is a common sign of viable cells or microbes.)
Another data set has as its system RAW264.7. The data set can be described thus: Cytotoxicity against mouse RAW264.7 cells by MTT assay. The format is cell-based. In general terms: Tetrazolium assays rely on reduction of a dye to a coloured formazan, in cell work by metabolically active cells.
Data set [2] in a line: Selectivity index, ratio of IC50 for mouse RAW264.7 cells to MIC99 for Mycobacterium tuberculosis H37Rv. Format: toxicity. As to conditions: read-out: Selectivity Index.
Data set [3] is described as follows: Cytotoxicity against mouse RAW264.7 cells at 50 ug/ml by MTT assay relative to control. As to conditions: read-out: INH. Format: cell-based.

One may read the MIC99 as an inhibitory concentration at the 99% level, which refers to growth in some studies and to a panel of isolates in others. A higher MIC99 goes with lower susceptibility. In data set [1], `Brc1ccccc1-n1cc(CN2CCN(c3nc4ccccc4c4ccccc34)CC2)nn1` returned an MIC99 of 50 µg/mL (≈ 100 µM). For orientation: IC50 means the concentration needed to halve the response being measured. Read a high IC50 as weaker potency in that assay. In the data set with RAW264.7, `COc1ccc(-n2cc(CN3CCN(c4nc5ccccc5c5ccccc45)CC3)nn2)cc1` came in with an IC50 of over 125 µg/mL. Besides, in data set [2], the selectivity ratio is over 15. In addition, the cytotoxicity at 50 ug/ml in data set [3] came out at 19.2%. The MIC99 in data set [1] was found to be 3.12 µg/mL (≈ 6.94 µM). As to `CCc1ccc(-n2cc(CN3CCN(c4nc5ccccc5c5ccccc45)CC3)nn2)cc1`, the MIC99 in data set [1] turned out to be 50 µg/mL (≈ 111 µM).

For `Clc1ccccc1-n1cc(CN2CCN(c3nc4ccccc4c4ccccc34)CC2)nn1`, in data set [1], the MIC99 was 12.5 µg/mL (≈ 27.5 µM). This MIC99 is about 4-fold lower than that of the molecule before. As for `Fc1ccc(-n2cc(CN3CCN(c4nc5ccccc5c5ccccc45)CC3)nn2)cc1`, the MIC99 in data set [1] is 25 µg/mL (≈ 57 µM). This MIC99 is about 2-fold higher than that of the molecule before. As for `O=S(=O)(c1ccccc1)n1cc(CN2CCN(c3nc4ccccc4c4ccccc34)CC2)nn1`, in the data set with RAW264.7, the IC50 was over 425 µg/mL. For the same molecule, the selectivity ratio in data set [2] is over 125. Further, the cytotoxicity at 50 ug/ml in data set [3] is 5.82%. In data set [1], this molecule had an MIC99 of 1.56 µg/mL (≈ 3.22 µM). `NNC(=O)c1ccncc1` [ISONIAZID] displayed an MIC99 in data set [1] of 0.36 µg/mL (≈ 2.63 µM). On the same count and under the same terms, under `Cc1ccc(-n2cc(CN3CCN(c4nc5ccccc5c5ccccc45)CC3)nn2)c(C)c1` stands 12.5 µg/mL (≈ 27.9 µM). In the case of `Fc1ccc(-n2cc(CN3CCN(c4nc5ccccc5c5ccccc45)CC3)nn2)cc1F`, the MIC99 in data set [1] was found to be 25 µg/mL (≈ 54.8 µM). As for `O=[N+]([O-])c1cccc(-n2cc(CN3CCN(c4nc5ccccc5c5ccccc45)CC3)nn2)c1`, the MIC99 in data set [1] stood at 6.25 µg/mL (≈ 13.4 µM). `Clc1ccc(-n2cc(CN3CCN(c4nc5ccccc5c5ccccc45)CC3)nn2)cc1` gave an MIC99 in data set [1] of 25 µg/mL (≈ 54.9 µM). For `c1ccc2c(c1)nc(N1CCN(Cc3cn(-c4ccc5c(c4)OCO5)nn3)CC1)c1ccccc12`, the MIC99 in data set [1] worked out at 50 µg/mL (≈ 108 µM). The molecule `c1ccc(Cn2cc(CN3CCN(c4nc5ccccc5c5ccccc45)CC3)nn2)cc1` gave an MIC99 in data set [1] of 50 µg/mL (≈ 115 µM). `Cc1ccc(S(=O)(=O)n2cc(CN3CCN(c4nc5ccccc5c5ccccc45)CC3)nn2)cc1` came in with an MIC99 in data set [1] of 12.5 µg/mL (≈ 25.1 µM). In turn, `FC(F)(F)c1cccc(-n2cc(CN3CCN(c4nc5ccccc5c5ccccc45)CC3)nn2)c1` displayed an MIC99 in data set [1] of 12.5 µg/mL (≈ 25.6 µM). As to `Brc1ccc(-n2cc(CN3CCN(c4nc5ccccc5c5ccccc45)CC3)nn2)cc1`, the MIC99 in data set [1] came out at 12.5 µg/mL (≈ 25 µM). In turn, `Clc1ccc(-n2cc(CN3CCN(c4nc5ccccc5c5ccccc45)CC3)nn2)cc1Cl` had an MIC99 in data set [1] of 50 µg/mL (≈ 102 µM). Compared with the last molecule, the MIC99 is about 4-fold higher. On the same count and under the same terms, then `Fc1ccc(-n2cc(CN3CCN(c4nc5ccccc5c5ccccc45)CC3)nn2)cc1Cl`, with 50 µg/mL (≈ 106 µM). In the data set on RAW264.7, `Clc1cccc(-n2cc(CN3CCN(c4nc5ccccc5c5ccccc45)CC3)nn2)c1` yielded an IC50 of over 150 µg/mL. Also, the selectivity ratio in data set [2] is over 20. Besides, the cytotoxicity at 50 ug/ml in data set [3] amounted to 12.6%. Besides, the MIC99 in data set [1] is 3.12 µg/mL (≈ 6.87 µM). Turning to `COc1cccc(-n2cc(CN3CCN(c4nc5ccccc5c5ccccc45)CC3)nn2)c1`, the MIC99 in data set [1] was found to be 50 µg/mL (≈ 111 µM). The same measure, in the same setting: under `CO[C@H]1/C=C/O[C@@]2(C)Oc3c(C)c(O)c4c(O)c(c(/C=N/N5CCN(C)CC5)c(O)c4c3C2=O)NC(=O)/C(C)=C\C=C\[C@H](C)[C@H](O)[C@@H](C)[C@@H](O)[C@@H](C)[C@H](OC(C)=O)[C@@H]1C` [RIFAMPIN] stands 0.02 µg/mL (≈ 0.0243 µM).
